In ChEMBL document CHEMBL3627713, “Triazole linked mono carbonyl curcumin-isatin bifunctional hybrids as novel anti tubulin agents: Design, synthesis, biological evaluation and molecular modeling studies” (Bioorg Med Chem, 2015):

System: not listed separately
Assay: Cytotoxicity against human MIAPaCa2 cells assessed as growth inhibition at 50 uM after 48 hrs by sulforhodamine B assay relative to control
Type: functional
Settings: MIA PaCa-2, 48 h, read-out: GI

Row | SMILES | inhibition of growth at 50 µM [%]
1 | COc1cc(/C=C/C(=O)/C=C/c2ccco2)ccc1OCc1cn(CCN2C(=O)C(=O)c3ccccc32)nn1 | 10
2 | COc1cc(/C=C/C(=O)/C=C/c2ccccc2)ccc1OCc1cn(CCN2C(=O)C(=O)c3cc(Cl)ccc32)nn1 | 13
3 | COc1ccc(/C=C/C(=O)/C=C/c2ccc(OCc3cn(CCN4C(=O)C(=O)c5cc(Br)ccc54)nn3)c(OC)c2)cc1 | 10
4 | COc1ccc(/C=C/C(=O)/C=C/c2ccc(OCc3cn(CCN4C(=O)C(=O)c5cc(Cl)ccc54)nn3)c(OC)c2)cc1 | 10
5 | COc1ccc(/C=C/C(=O)/C=C/c2ccc(OCc3cn(CCN4C(=O)C(=O)c5cc(Br)ccc54)nn3)c(OC)c2)cc1OC | 12
6 | COc1cc(/C=C/C(=O)/C=C/c2ccccc2)ccc1OCc1cn(CCN2C(=O)C(=O)c3cc(Br)ccc32)nn1 | 16

System: COLO 205
Assay: Cytotoxicity against human COLO205 cells assessed as growth inhibition at 50 uM after 48 hrs by sulforhodamine B assay relative to control
Type: functional
Settings: COLO 205, 48 h, read-out: GI

Row | SMILES | inhibition of growth at 50 µM [%]
7 | COc1ccccc1/C=C/C(=O)/C=C/c1ccc(OCc2cn(CCN3C(=O)C(=O)c4cc(Br)ccc43)nn2)c(OC)c1 | 47
8 | COc1cc(/C=C/C(=O)/C=C/c2ccco2)ccc1OCc1cn(CCN2C(=O)C(=O)c3ccccc32)nn1 | 68
9 | COc1cc(/C=C/C(=O)/C=C/c2ccccc2)ccc1OCc1cn(CCN2C(=O)C(=O)c3cc(Cl)ccc32)nn1 | 63
10 | COc1ccc(/C=C/C(=O)/C=C/c2ccc(OCc3cn(CCN4C(=O)C(=O)c5cc(Br)ccc54)nn3)c(OC)c2)cc1 | 59
11 | COc1ccc(/C=C/C(=O)/C=C/c2ccc(OCc3cn(CCN4C(=O)C(=O)c5cc(Cl)ccc54)nn3)c(OC)c2)cc1 | 63
12 | COc1ccc(/C=C/C(=O)/C=C/c2ccc(OCc3cn(CCN4C(=O)C(=O)c5cc(Br)ccc54)nn3)c(OC)c2)cc1OC | 63
13 | COc1cc(/C=C/C(=O)/C=C/c2ccccc2)ccc1OCc1cn(CCN2C(=O)C(=O)c3cc(Br)ccc32)nn1 | 51

System: COLO 205
Assay: Cytotoxicity against human COLO205 cells assessed as growth inhibition after 48 hrs by sulforhodamine B assay
Type: functional, cell-based
Settings: COLO 205, 48 h

Row | SMILES | IC50 [µM]
14 | COc1cc(/C=C/C(=O)/C=C/c2ccco2)ccc1OCc1cn(CCN2C(=O)C(=O)c3ccccc32)nn1 | 7.53
15 | COc1ccc(/C=C/C(=O)/C=C/c2ccc(OCc3cn(CCN4C(=O)C(=O)c5cc(Cl)ccc54)nn3)c(OC)c2)cc1 | 11

System: HeLa
Assay: Cytotoxicity against human HeLa cells assessed as growth inhibition at 50 uM after 48 hrs by sulforhodamine B assay relative to control
Type: functional
Settings: read-out: GI

Row | SMILES | inhibition of growth at 50 µM [%]
16 | COc1cc(/C=C/C(=O)/C=C/c2ccccc2)ccc1OCc1cn(CCN2C(=O)C(=O)c3cc(Cl)ccc32)nn1 | 14
17 | COc1ccc(/C=C/C(=O)/C=C/c2ccc(OCc3cn(CCN4C(=O)C(=O)c5cc(Br)ccc54)nn3)c(OC)c2)cc1 | 10
18 | COc1ccc(/C=C/C(=O)/C=C/c2ccc(OCc3cn(CCN4C(=O)C(=O)c5cc(Cl)ccc54)nn3)c(OC)c2)cc1 | 12
19 | COc1ccc(/C=C/C(=O)/C=C/c2ccc(OCc3cn(CCN4C(=O)C(=O)c5cc(Br)ccc54)nn3)c(OC)c2)cc1OC | 12
20 | COc1cc(/C=C/C(=O)/C=C/c2ccccc2)ccc1OCc1cn(CCN2C(=O)C(=O)c3cc(Br)ccc32)nn1 | 14

System: A549
Assay: Cytotoxicity against human A549 cells assessed as growth inhibition at 50 uM after 48 hrs by sulforhodamine B assay relative to control
Type: functional
Settings: A549, 48 h, read-out: GI

Row | SMILES | inhibition of growth at 50 µM [%]
21 | COc1cc(/C=C/C(=O)/C=C/c2ccccc2)ccc1OCc1cn(CCN2C(=O)C(=O)c3cc(Cl)ccc32)nn1 | 21
22 | COc1ccc(/C=C/C(=O)/C=C/c2ccc(OCc3cn(CCN4C(=O)C(=O)c5cc(Cl)ccc54)nn3)c(OC)c2)cc1 | 15
23 | COc1ccc(/C=C/C(=O)/C=C/c2ccc(OCc3cn(CCN4C(=O)C(=O)c5cc(Br)ccc54)nn3)c(OC)c2)cc1OC | 10
24 | COc1cc(/C=C/C(=O)/C=C/c2ccccc2)ccc1OCc1cn(CCN2C(=O)C(=O)c3cc(Br)ccc32)nn1 | 11

System: THP-1
Assay: Cytotoxicity against human THP1 cells assessed as growth inhibition at 50 uM after 48 hrs by sulforhodamine B assay relative to control
Type: functional
Settings: THP-1, 48 h, read-out: GI

Row | SMILES | inhibition of growth at 50 µM [%]
25 | COc1ccccc1/C=C/C(=O)/C=C/c1ccc(OCc2cn(CCN3C(=O)C(=O)c4cc(Br)ccc43)nn2)c(OC)c1 | 43
26 | COc1cc(/C=C/C(=O)/C=C/c2ccco2)ccc1OCc1cn(CCN2C(=O)C(=O)c3ccccc32)nn1 | 72
27 | COc1cc(/C=C/C(=O)/C=C/c2ccccc2)ccc1OCc1cn(CCN2C(=O)C(=O)c3cc(Cl)ccc32)nn1 | 65
28 | COc1ccc(/C=C/C(=O)/C=C/c2ccc(OCc3cn(CCN4C(=O)C(=O)c5cc(Br)ccc54)nn3)c(OC)c2)cc1 | 60
29 | COc1ccc(/C=C/C(=O)/C=C/c2ccc(OCc3cn(CCN4C(=O)C(=O)c5cc(Cl)ccc54)nn3)c(OC)c2)cc1 | 64
30 | COc1ccc(/C=C/C(=O)/C=C/c2ccc(OCc3cn(CCN4C(=O)C(=O)c5cc(Br)ccc54)nn3)c(OC)c2)cc1OC | 65
31 | COc1cc(/C=C/C(=O)/C=C/c2ccccc2)ccc1OCc1cn(CCN2C(=O)C(=O)c3cc(Br)ccc32)nn1 | 54

System: PC-3
Assay: Cytotoxicity against human PC3 cells assessed as growth inhibition at 50 uM after 48 hrs by sulforhodamine B assay relative to control
Type: functional
Settings: PC-3, 48 h, read-out: GI

Row | SMILES | inhibition of growth at 50 µM [%]
32 | COc1ccccc1/C=C/C(=O)/C=C/c1ccc(OCc2cn(CCN3C(=O)C(=O)c4cc(Br)ccc43)nn2)c(OC)c1 | 42
33 | COc1cc(/C=C/C(=O)/C=C/c2ccco2)ccc1OCc1cn(CCN2C(=O)C(=O)c3ccccc32)nn1 | 65
34 | COc1cc(/C=C/C(=O)/C=C/c2ccccc2)ccc1OCc1cn(CCN2C(=O)C(=O)c3cc(Cl)ccc32)nn1 | 58
35 | COc1ccc(/C=C/C(=O)/C=C/c2ccc(OCc3cn(CCN4C(=O)C(=O)c5cc(Br)ccc54)nn3)c(OC)c2)cc1 | 57
36 | COc1ccc(/C=C/C(=O)/C=C/c2ccc(OCc3cn(CCN4C(=O)C(=O)c5cc(Cl)ccc54)nn3)c(OC)c2)cc1 | 60
37 | COc1ccc(/C=C/C(=O)/C=C/c2ccc(OCc3cn(CCN4C(=O)C(=O)c5cc(Br)ccc54)nn3)c(OC)c2)cc1OC | 61
38 | COc1cc(/C=C/C(=O)/C=C/c2ccccc2)ccc1OCc1cn(CCN2C(=O)C(=O)c3cc(Br)ccc32)nn1 | 50

System: HCT-116
Assay: Cytotoxicity against human HCT116 cells assessed as growth inhibition at 50 uM after 48 hrs by sulforhodamine B assay relative to control
Type: functional
Settings: HCT-116, 48 h, read-out: GI

Row | SMILES | inhibition of growth at 50 µM [%]
39 | COc1ccccc1/C=C/C(=O)/C=C/c1ccc(OCc2cn(CCN3C(=O)C(=O)c4cc(Br)ccc43)nn2)c(OC)c1 | 50
40 | COc1cc(/C=C/C(=O)/C=C/c2ccco2)ccc1OCc1cn(CCN2C(=O)C(=O)c3ccccc32)nn1 | 78
41 | COc1cc(/C=C/C(=O)/C=C/c2ccccc2)ccc1OCc1cn(CCN2C(=O)C(=O)c3cc(Cl)ccc32)nn1 | 68
42 | COc1ccc(/C=C/C(=O)/C=C/c2ccc(OCc3cn(CCN4C(=O)C(=O)c5cc(Br)ccc54)nn3)c(OC)c2)cc1 | 65
43 | COc1ccc(/C=C/C(=O)/C=C/c2ccc(OCc3cn(CCN4C(=O)C(=O)c5cc(Cl)ccc54)nn3)c(OC)c2)cc1 | 66
44 | COc1ccc(/C=C/C(=O)/C=C/c2ccc(OCc3cn(CCN4C(=O)C(=O)c5cc(Br)ccc54)nn3)c(OC)c2)cc1OC | 69
45 | COc1cc(/C=C/C(=O)/C=C/c2ccccc2)ccc1OCc1cn(CCN2C(=O)C(=O)c3cc(Br)ccc32)nn1 | 56

System: CAKI-1
Assay: Cytotoxicity against human Caki1 cells assessed as growth inhibition at 50 uM after 48 hrs by sulforhodamine B assay relative to control
Type: functional
Settings: CAKI-1, 48 h, read-out: GI

Row | SMILES | inhibition of growth at 50 µM [%]
46 | COc1cc(/C=C/C(=O)/C=C/c2ccco2)ccc1OCc1cn(CCN2C(=O)C(=O)c3ccccc32)nn1 | 12
47 | COc1cc(/C=C/C(=O)/C=C/c2ccccc2)ccc1OCc1cn(CCN2C(=O)C(=O)c3cc(Cl)ccc32)nn1 | 13
48 | COc1ccc(/C=C/C(=O)/C=C/c2ccc(OCc3cn(CCN4C(=O)C(=O)c5cc(Br)ccc54)nn3)c(OC)c2)cc1OC | 10
49 | COc1cc(/C=C/C(=O)/C=C/c2ccccc2)ccc1OCc1cn(CCN2C(=O)C(=O)c3cc(Br)ccc32)nn1 | 12

System: HCT-116
Assay: Cytotoxicity against human HCT116 cells assessed as growth inhibition after 48 hrs by sulforhodamine B assay
Type: functional, cell-based
Settings: HCT-116, 48 h

Row | SMILES | IC50 [µM]
50 | COc1cc(/C=C/C(=O)/C=C/c2ccco2)ccc1OCc1cn(CCN2C(=O)C(=O)c3ccccc32)nn1 | 4.61
51 | COc1ccc(/C=C/C(=O)/C=C/c2ccc(OCc3cn(CCN4C(=O)C(=O)c5cc(Cl)ccc54)nn3)c(OC)c2)cc1 | 7.81

System: THP-1
Assay: Cytotoxicity against human THP1 cells assessed as growth inhibition after 48 hrs by sulforhodamine B assay
Type: functional, cell-based
Settings: THP-1, 48 h

Row | SMILES | IC50 [µM]
52 | COc1cc(/C=C/C(=O)/C=C/c2ccco2)ccc1OCc1cn(CCN2C(=O)C(=O)c3ccccc32)nn1 | 6.56
53 | COc1ccc(/C=C/C(=O)/C=C/c2ccc(OCc3cn(CCN4C(=O)C(=O)c5cc(Cl)ccc54)nn3)c(OC)c2)cc1 | 9.78

System: PC-3
Assay: Cytotoxicity against human PC3 cells assessed as growth inhibition after 48 hrs by sulforhodamine B assay
Type: functional, cell-based
Settings: PC-3, 48 h

Row | SMILES | IC50 [µM]
54 | COc1cc(/C=C/C(=O)/C=C/c2ccco2)ccc1OCc1cn(CCN2C(=O)C(=O)c3ccccc32)nn1 | 8.4
55 | COc1ccc(/C=C/C(=O)/C=C/c2ccc(OCc3cn(CCN4C(=O)C(=O)c5cc(Cl)ccc54)nn3)c(OC)c2)cc1 | 12.5
